Source: ChEMBL document CHEMBL1201862, “PubChem BioAssay data set” (2004)
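Values below derive from 48-hour exposures of cells grown in 96-well plates, with endpoints linearly interpolated between the two concentrations bracketing the appropriate inhibition level. The concentration for 50% growth inhibition is given as GI50.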 The source made the active and inactive calls. Rule as the data show it: active = GI50 up to about 1.1 µM and inactive = higher.

Experiments:
Experiment in all cases: NCI tumour cell line growth inhibition, 48 h
[1] = tested on: NCI-H226
[2] = tested on: MDA-N
[3] = tested on: SNB-75
[4] = tested on: MDA-MB-435
[5] = tested on: NCI-H460
[6] = tested on: ACHN
[7] = tested on: SNB-19
[8] = tested on: SF-295
[9] = tested on: SK-MEL-2
[10] = tested on: SK-MEL-28
[11] = tested on: OVCAR-8
[12] = tested on: COLO 205
[13] = tested on: HOP-92
[14] = tested on: UACC-257
[15] = tested on: RXF 393
[16] = tested on: SW-620
[17] = tested on: DU-145
[18] = tested on: SF-268
[19] = tested on: K562
[20] = tested on: HL-60
[21] = tested on: PC-3
[22] = tested on: Hs-578T
[23] = tested on: Malme-3M
[24] = tested on: MCF7
[25] = tested on: HOP-62
[26] = tested on: UO-31
[27] = tested on: U-251
[28] = tested on: MOLT-4
[29] = tested on: KM12
[30] = tested on: T47D
[31] = tested on: NCI/ADR-RES
[32] = tested on: HCC 2998
[33] = tested on: CCRF-CEM
[34] = tested on: SK-MEL-5
[35] = tested on: RPMI-8226
[36] = tested on: TK-10
[37] = tested on: OVCAR-5
[38] = tested on: 786-0
[39] = tested on: M14
[40] = tested on: EKVX
[41] = tested on: CAKI-1
[42] = tested on: SF-539
[43] = tested on: BT-549
[44] = tested on: SN12C
[45] = tested on: A498
[46] = tested on: NCI-H23
[47] = tested on: NCI-H522
[48] = tested on: HT-29
[49] = tested on: IGROV-1
[50] = tested on: OVCAR-4
[51] = tested on: A549
[52] = tested on: MDA-MB-231
[53] = tested on: HCT-116
[54] = tested on: SR
[55] = tested on: LOX IMVI
[56] = tested on: OVCAR-3
[57] = tested on: HCT-15
[58] = tested on: UACC-62

In the case of `COc1c2occc2c(N)c2ccc(=O)oc12`, the GI50 [1] is reported as 29.5 µM (inactive), the GI50 [2] is reported as > 100 µM (inactive) and the GI50 [3] is reported as 17.2 µM (inactive). The GI50 [4] was > 100 µM (inactive), the GI50 [5] was > 100 µM (inactive) and the GI50 [6] was > 100 µM (inactive). The GI50 [7] was > 100 µM (inactive), the GI50 [8] was > 100 µM (inactive) and the GI50 [9] was > 100 µM (inactive). The GI50 [10] was > 100 µM (inactive), the GI50 [11] was > 100 µM (inactive) and the GI50 [12] was > 100 µM (inactive). The GI50 [13] was > 100 µM (inactive), the GI50 [14] was > 100 µM (inactive) and the GI50 [15] was 15.3 µM (inactive). The GI50 [16] was > 100 µM (inactive), the GI50 [17] was > 100 µM (inactive) and the GI50 [18] was > 100 µM (inactive). The GI50 [19] was > 100 µM (inactive), the GI50 [20] was 49.2 µM (inactive) and the GI50 [21] was > 100 µM (inactive). For the same molecule, the GI50 [22] was > 100 µM (inactive), the GI50 [23] was > 100 µM (inactive) and the GI50 [24] was > 100 µM (inactive). For the same molecule, the GI50 [25] was > 100 µM (inactive), the GI50 [26] was > 100 µM (inactive) and the GI50 [27] was > 100 µM (inactive). For the same molecule, the GI50 [28] was > 100 µM (inactive), the GI50 [29] was > 100 µM (inactive) and the GI50 [30] was > 100 µM (inactive). The GI50 [31] was > 100 µM (inactive), the GI50 [32] was > 100 µM (inactive) and the GI50 [33] was 93.5 µM (inactive). The GI50 [34] was 35 µM (inactive), the GI50 [35] was > 100 µM (inactive) and the GI50 [36] was > 100 µM (inactive). For the same molecule, the GI50 [37] was > 100 µM (inactive), the GI50 [38] was > 100 µM (inactive) and the GI50 [39] was > 100 µM (inactive). The GI50 [40] was 51.9 µM (inactive), the GI50 [41] was > 100 µM (inactive) and the GI50 [42] was 75.2 µM (inactive). The GI50 [43] was > 100 µM (inactive), the GI50 [44] was > 100 µM (inactive) and the GI50 [45] was > 100 µM (inactive). The GI50 [46] was > 100 µM (inactive), the GI50 [47] was 75 µM (inactive) and the GI50 [48] was > 100 µM (inactive). The GI50 [49] was > 100 µM (inactive), the GI50 [50] was > 100 µM (inactive) and the GI50 [51] was > 100 µM (inactive). For the same molecule, the GI50 [52] was > 100 µM (inactive), the GI50 [53] was > 100 µM (inactive) and the GI50 [54] was > 100 µM (inactive). For the same molecule, the GI50 [55] was > 100 µM (inactive), the GI50 [56] was > 100 µM (inactive) and the GI50 [57] was greater than 100 µM. The GI50 [58] was 41.6 µM (inactive).
